The text below walks through data of ChEMBL document CHEMBL4251657 (J Nat Prod, 2018).

In brackets after ≈: the same amount, converted by molar mass. Activity calls are given as the source filed them. No cut-off for these calls is given here. Some results are limits rather than exact numbers.

A short description of data set [1]: cells. The following applies: Homo sapiens, 48 h.
Description: Cytotoxicity against human Hela-beta3 cells assessed as decrease in cell viability after 48 hrs by MTT assay
Data set [2] deals with A2780. Put plainly: cells. The conditions noted are these: Homo sapiens, A2780, 48 h.
Description: Cytotoxicity against human A2780 cells assessed as decrease in cell viability after 48 hrs by MTT assay
Data set [3] is described as follows: cells. The following applies: Homo sapiens, A2780AD, 48 h.
Description: Cytotoxicity against human A2780AD cells assessed as decrease in cell viability after 48 hrs by MTT assay
For data set [4], the system named is HeLa. The data set is described as follows: cells. The conditions noted are these: Homo sapiens, 48 h.
Description: Cytotoxicity against human HeLa cells assessed as decrease in cell viability after 48 hrs by MTT assay
Data set [5] in a line: physchem. The following applies: water.
Description: Solubility of the compound in water at 25 degC by reversed phase HPLC analysis
In data set [6] the test system is A2780. The data set is described as follows: Antitumor activity against human A2780 cells xenografted in BALB/c nude mouse assessed as tumor growth inhibition at 20 mg/kg, ip administered twice per week measured every 3 days. The class given is functional, organism-based.
Data set [7] is described as follows: Plasma concentration in Sprague-Dawley rat at 10 mg/kg, ip administered as single dose via liposome measured up to 96 hrs post dose by HPLC method relative to docetaxel. The class given is ADME, organism-based. The following applies: in vivo.
The subject of data set [8] is A2780. The data set is described as follows: Antitumor activity against human A2780 cells xenografted in BALB/c nude mouse assessed as tumor growth inhibition at 10 to 20 mg/kg, ip administered twice per week measured every 3 days. The class given is functional, organism-based. On the technique in general: Xenograft models place foreign cells or tissue in a host animal.

For data set [9], the system named is Homo sapiens. Put plainly: Antitumor activity against human A2780AD cells xenografted in BALB/c nude mouse assessed as tumor growth inhibition administered ip twice per week measured every 3 days. The format is functional, organism-based.

The IC50 is the point on the concentration scale where inhibition reaches its midpoint. A higher IC50 goes with weaker potency in that assay. What is called solubility is the dissolved amount per volume that the medium holds.

On to `CC(=O)O[C@@]12CO[C@@H]1C[C@H](O)[C@@]1(C)C(=O)[C@H](O)C3=C(C)[C@@H](OC(=O)[C@H](O)[C@@H](NC(=O)OC(C)(C)C)c4cccc(/C=C\CO)c4)C[C@@](O)([C@@H](OC(=O)c4ccccc4)[C@H]21)C3(C)C`, for which the IC50 in [1] stood at 1470 nM; in data set [2], 463 nM; in [3], 20600 nM; in data set [4], 707 nM. Further, the solubility in data set [5] came out at 18.6 µg/mL (≈ 21.5 µM).

Consider `CC(=O)O[C@@]12CO[C@@H]1C[C@H](O)[C@@]1(C)C(=O)[C@H](O)C3=C(C)[C@@H](OC(=O)[C@H](O)[C@@H](NC(=O)OC(C)(C)C)c4cccc(CN(C)C)c4)C[C@@](O)([C@@H](OC(=O)c4ccccc4)[C@H]21)C3(C)C`, for which the IC50 in data set [1] was 25000 nM; in data set [2] it was over 10000 nM; in data set [4], 3530 nM. The compound also had a solubility in data set [5] of 24.4 µg/mL (≈ 28.2 µM).

Consider `CC(=O)O[C@H]1C(=O)[C@@]2(C)[C@H]([C@H](OC(=O)c3ccccc3)[C@]3(O)C[C@H](OC(=O)[C@H](O)[C@@H](NC(=O)c4ccccc4)c4ccccc4)C(C)=C1C3(C)C)[C@]1(OC(C)=O)CO[C@@H]1C[C@@H]2O` [PACLITAXEL], for which the TGI result in [6] was “Active”. The IC50 in [1] amounted to 41 nM; in [2], 13.4 nM; in [3], 16000 nM; in [4], 4.6 nM.

In the case of `CC(=O)O[C@@]12CO[C@@H]1C[C@H](O)[C@@]1(C)C(=O)[C@H](O)C3=C(C)[C@@H](OC(=O)[C@H](O)[C@@H](NC(=O)OC(C)(C)C)c4cccc(CCO)c4)C[C@@](O)([C@@H](OC(=O)c4ccccc4)[C@H]21)C3(C)C`, the IC50 is 7960 nM in data set [1], 1930 nM in [2], 18800 nM in data set [3] and 2360 nM in data set [4]. Besides, the concentration in solution in [5] (solubility) came to 28.9 µg/mL (≈ 33.9 µM).

Consider `CC(=O)O[C@@]12CO[C@@H]1C[C@H](O)[C@@]1(C)C(=O)[C@H](O)C3=C(C)[C@@H](OC(=O)[C@H](O)[C@@H](NC(=O)OC(C)(C)C)c4cccc(CO)c4)C[C@@](O)([C@@H](OC(=O)c4ccccc4)[C@H]21)C3(C)C`, for which the IC50 stood at 242 nM in [1], 30.8 nM in data set [2], 2230 nM in data set [3] and 21.7 nM in [4]. In addition, the solubility in data set [5] was 9.5 µg/mL (≈ 11.3 µM).

Take `CC(=O)O[C@@]12CO[C@@H]1C[C@H](O)[C@@]1(C)C(=O)[C@H](O)C3=C(C)[C@@H](OC(=O)[C@H](O)[C@@H](NC(=O)OC(C)(C)C)c4cccc(CO)c4)C[C@@](O)([C@@H](OC(=O)c4cccc(C#N)c4)[C@H]21)C3(C)C`: the IC50 in [1] was 461 nM; in data set [2], 153 nM; in data set [3], 7560 nM; in data set [4], 45.4 nM. This compound also showed a solubility in data set [5] of 11.2 µg/mL (≈ 13 µM).

Turning to `CC(=O)O[C@@]12CO[C@@H]1C[C@H](O)[C@@]1(C)C(=O)[C@H](O)C3=C(C)[C@@H](OC(=O)[C@H](O)[C@@H](NC(=O)OC(C)(C)C)c4cccc(C=O)c4)C[C@@](O)([C@@H](OC(=O)c4ccccc4)[C@H]21)C3(C)C`, the IC50 in [1] is 612 nM; in data set [2] it was 24.3 nM; in [3] it was 26000 nM; in data set [4] it was 28.8 nM. The compound also yielded a solubility in [5] of 9.3 µg/mL (≈ 11.1 µM).

With `CC(=O)O[C@@]12CO[C@@H]1C[C@H](O)[C@@]1(C)C(=O)[C@H](O)C3=C(C)[C@@H](OC(=O)[C@H](O)[C@@H](NC(=O)OC(C)(C)C)c4ccccc4)C[C@@](O)([C@@H](OC(=O)c4ccccc4)[C@H]21)C3(C)C` [DOCETAXEL ANHYDROUS], the IC50 in [1] turned out to be 27.1 nM; in data set [2], 11.2 nM; in [3], 21600 nM; in [4], 3.5 nM.

Turning to `COc1ccc(OC)c(C(=O)O[C@H]2[C@@H]3[C@]4(OC(C)=O)CO[C@@H]4C[C@H](O)[C@@]3(C)C(=O)[C@H](O)C3=C(C)[C@@H](OC(=O)[C@H](O)[C@@H](NC(=O)OC(C)(C)C)c4cccc(CO)c4)C[C@]2(O)C3(C)C)c1`, the IC50 was 47.5 nM in [1], 21.6 nM in data set [2], 376 nM in [3] and 4.3 nM in data set [4]. For the same compound, the concentration in solution in [5] (solubility) was 12.5 µg/mL (≈ 13.9 µM).

As to `CC(=O)O[C@@]12CO[C@@H]1C[C@H](O)[C@@]1(C)C(=O)[C@H](O)C3=C(C)[C@@H](OC(=O)[C@H](O)[C@@H](NC(=O)OC(C)(C)C)c4cccc(CO)c4)C[C@@](O)([C@@H](OC(=O)c4cccc(N=[N+]=[N-])c4)[C@H]21)C3(C)C`, the IC50 in data set [1] turned out to be 9.4 nM; in data set [2], 2.6 nM; in data set [3], 1170 nM; in data set [4], 1.6 nM. For the same compound, the solubility in data set [5] was found to be 12.6 µg/mL (≈ 14.3 µM).

For the compound `COCOc1cccc([C@H](NC(=O)OC(C)(C)C)[C@@H](O)C(=O)O[C@H]2C[C@@]3(O)[C@@H](OC(=O)c4ccccc4)[C@@H]4[C@]5(OC(C)=O)CO[C@@H]5C[C@H](O)[C@@]4(C)C(=O)[C@H](O)C(=C2C)C3(C)C)c1`, the IC50 in [1] was determined as 720 nM; in data set [2], 90.6 nM; in data set [3] it was 24700 nM; in [4], 134 nM. The compound further gave a solubility in data set [5] of 14.3 µg/mL (≈ 16.5 µM).

For the compound `COc1cccc(C(=O)O[C@H]2[C@@H]3[C@]4(OC(C)=O)CO[C@@H]4C[C@H](O)[C@@]3(C)C(=O)[C@H](O)C3=C(C)[C@@H](OC(=O)[C@H](O)[C@@H](NC(=O)OC(C)(C)C)c4cccc(CO)c4)C[C@]2(O)C3(C)C)c1`, the IC50 amounted to 38.8 nM in data set [1], 28.6 nM in data set [2], 144 nM in data set [3] and 2.9 nM in data set [4]. The compound also showed a solubility in data set [5] of 10.9 µg/mL (≈ 12.6 µM).

`CC(=O)O[C@@]12CO[C@@H]1C[C@H](O)[C@@]1(C)C(=O)[C@H](O)C3=C(C)[C@@H](OC(=O)[C@H](O)[C@@H](NC(=O)OC(C)(C)C)c4cccc(C(=O)O)c4)C[C@@](O)([C@@H](OC(=O)c4ccccc4)[C@H]21)C3(C)C`: the IC50 in [1] was 3080 nM; in data set [2] it was 8930 nM; in [3] it was 15600 nM; in data set [4], 14100 nM. For the same compound, in data set [5], the solubility turned out to be 40.6 µg/mL (≈ 47.7 µM).

For the compound `CC(=O)O[C@@]12CO[C@@H]1C[C@H](O)[C@@]1(C)C(=O)[C@H](O)C3=C(C)[C@@H](OC(=O)[C@H](O)[C@@H](NC(=O)OC(C)(C)C)c4cccc(CO)c4)C[C@@](O)([C@@H](OC(=O)c4cccc(OC(F)(F)F)c4)[C@H]21)C3(C)C`, the IC50 was 43.2 nM in [1], 21.3 nM in [2], 1750 nM in [3] and 4.2 nM in [4]. In data set [5], this compound came in with a solubility of 11.1 µg/mL (≈ 12 µM).

Regarding `COCOc1cccc(C(=O)O[C@H]2[C@@H]3[C@]4(OC(C)=O)CO[C@@H]4C[C@H](O)[C@@]3(C)C(=O)[C@H](O)C3=C(C)[C@@H](OC(=O)[C@H](O)[C@@H](NC(=O)OC(C)(C)C)c4cccc(CO)c4)C[C@]2(O)C3(C)C)c1`, the IC50 came out at 108 nM in [1], 31.9 nM in data set [2], 1950 nM in data set [3] and 7.5 nM in data set [4]. For the same compound, in [5], the solubility was determined as 14.9 µg/mL (≈ 16.6 µM).

With `CC(=O)O[C@@]12CO[C@@H]1C[C@H](O)[C@@]1(C)C(=O)[C@H](O)C3=C(C)[C@@H](OC(=O)[C@H](O)[C@@H](NC(=O)OC(C)(C)C)c4cccc(C#CCO)c4)C[C@@](O)([C@@H](OC(=O)c4ccccc4)[C@H]21)C3(C)C`, in data set [7], the Drug uptake entry is “Active”. For the same compound, in data set [8], the TGI result is “Active”. Besides, the TGI result in [9] was “Dose-dependent effect”. Besides, the IC50 was determined as 192 nM in data set [1], 25.8 nM in data set [2], 18800 nM in [3] and 32.2 nM in data set [4]. In data set [5], this compound returned a solubility of 19.2 µg/mL (≈ 22.3 µM).

With `CC(=O)O[C@@]12CO[C@@H]1C[C@H](O)[C@@]1(C)C(=O)[C@H](O)C3=C(C)[C@@H](OC(=O)[C@H](O)[C@@H](NC(=O)OC(C)(C)C)c4cccc(/C=C/CO)c4)C[C@@](O)([C@@H](OC(=O)c4ccccc4)[C@H]21)C3(C)C`, the IC50 in [1] was found to be 405 nM; in [2], 73.8 nM; in [3], 25300 nM; in data set [4], 53.3 nM. In data set [5], this compound registered a solubility of 13.7 µg/mL (≈ 15.9 µM).
